Measured values published in ChEMBL document CHEMBL1157435, “Synthesis of 3',4'-epoxynoraristeromycin analogs for molecular labeling probe of S-adenosyl-l-homocysteine hydrolase” (Bioorg Med Chem, 2008).
Active and inactive are the calls of the source. The calls are words filed in the database; no cut-off is given here.

Experiments:
Adenosylhomocysteinase = Adenosylhomocysteinase (Homo sapiens, UniProt P23526); assay: Inhibition of human SAHH
Plasmodium falciparum = assay: (§1) Inhibition of Plasmodium falciparum SAHH
[1] = as §1

For `Nc1ncnc2c1ncn2[C@@H]1C[C@H]2O[C@H]2[C@H]1O`, the Ki (Adenosylhomocysteinase) was 12.4 µM, the Kinact (Adenosylhomocysteinase) was 0.552 min⁻¹ and the Activity (Plasmodium falciparum) was “inactive”.
Compound `Nc1nc(F)nc2c1ncn2[C@@H]1C[C@H]2O[C@H]2[C@H]1O` has a Ki (Adenosylhomocysteinase) of 20.3 µM, a Kinact (Adenosylhomocysteinase) of 0.133 min⁻¹ and a Kinact (Plasmodium falciparum) of 0.099 min⁻¹. The Ki [1] was 14.3 µM.
With `Nc1ncnc2c1ncn2C[C@H](O)[C@H](O)C=O` the Kinact (Adenosylhomocysteinase) was 0.09 min⁻¹.
